In turn, `CC12CCC(C1)C(C)(C)C2(CCO)SN=O` (stereo not given) yielded a melting point of 81 to 85 °C.

Compound `O=C(c1ccccn1)c1nsc2nccn12` yielded a melting point of 147 to 148 °C.

Regarding `Cc1ccc(C(=O)n2c3c(c4ccccc42)CC(C(=O)O)(C(=O)O)CC3)cc1`, the melting point fell in the range of 190 to 195 °C.

As to `COc1ccc(-c2nc3cccc(C(=O)NC4CN5CCC4CC5)c3o2)cc1` (stereo not given), the melting point was in the range of 166 to 167 °C.

As for `CCC(C)(C)OC(=O)NC(C)(Cc1c[nH]c2ccccc12)C(=O)NCCc1ccc(OC)cc1` (stereo not given), the melting point lay in the range of 128 to 130 °C.

Take `CC(C)n1nc(-c2cnc(N)nc2-c2cccnc2)ccc1=O`: the melting point was determined as 204 °C.

Compound `O=C1C=CC(O)(c2nc3ccccc3o2)C=C1` displayed a melting point of 116 to 117 °C.

For the compound `Cc1c(CC(=O)O)c(=O)oc2cc(C3OC(CO)C(O)C(O)C3O)ccc12` (stereo not given), the melting point is 186 to 188 °C.

`CN1C(=O)CN(c2cccc(Br)c2)NC1=O`: the melting point was in the range of 165 to 166 °C.

For the compound `CCn1ncc2c(Cl)c(C(N)=O)cnc21`, the melting point lay within 192 to 193 °C.

In turn, `CN(C)Cc1cc2c(cc1O)CCC1C2CCC2(C)C(=O)CCC12` (stereo not given) displayed a melting point of 172 to 173 °C.

`O=C(Nc1ccccc1C(=O)O)c1cccc(OC(F)F)c1` yielded a melting point of 186 to 191 °C.

As for `COc1ccc(Oc2ccc(OCc3ccccc3)cc2)c([N+](=O)[O-])c1`, the melting point was 88 to 89.5 °C.

On to `O=C1NC(=O)C2(CCOc3c([N+](=O)[O-])cc(F)cc32)S1` (stereo not given), for which the melting point was in the range of 192 to 194 °C.

In the case of `COc1cc2ncnc(N3CCN(C(=O)Nc4ccc5[nH]ccc5c4)CC3)c2cc1OC`, the melting point was 209 to 210 °C.

Turning to `COc1ccccc1-c1cc(=O)c2ccccc2o1`, the melting point lay in the range of 97 to 98.5 °C.

The compound `CCP(=O)(CC)Cc1ccc(NC(=O)C2=Cc3cc(-c4ccc(C)cc4)ccc3OCC2)cc1` gave a melting point of 240 to 241 °C.

`COC(=O)c1c([N+](=O)[O-])cccc1S(=O)(=O)N(CCO)CCO` registered a melting point of 92 to 93 °C.

The compound `COc1ccc2ncc(C(N)=O)cc2c1` returned a melting point of 93.7 to 95.7 °C.

`Nc1nc(NC2CC2)c2sc(=O)n(C3OC(CO)C(O)C3O)c2n1` (stereo not given) displayed a melting point of more than 100 °C.

`COC(=O)c1csc(Cl)c1NC(C)=O` yielded a melting point of 119 to 121 °C.

`CC(C)C[C@H]1CN(Cc2ccccc2)C[C@@H]1C(=O)O` showed a melting point of 236 to 239 °C.

On to `N#Cc1ccc(N(Cc2ccc(OS(N)(=O)=O)c(Cl)c2)n2cnnc2)cc1-c1ccccc1`, for which the melting point was 201 to 204 °C.

In turn, `CC1(C)COC(C(=O)O)OC1` had a melting point of 58 to 60 °C.

`Oc1nc2ccc3cn[nH]c3c2nc1O`: the melting point is more than 300 °C.

`O=C1Nc2ccccc2C1C(=O)c1ccoc1` (stereo not given) registered a melting point of 185 to 186 °C.

`Cc1ncccc1CC(=NC#N)NC1CCc2cc(F)ccc21` (stereo not given) gave a melting point of 148 to 149 °C.

As to `Cc1cc(-c2ccc(NS(C)(=O)=O)cc2)cc2ccc(=O)[nH]c12`, the melting point is 340 to 343 °C.

The compound `Cc1oc(-c2ccccc2)nc1CCOc1ccc(CC(C)(C(=O)O)n2ccc(Br)c2)cc1` (stereo not given) yielded a melting point of 158 to 159 °C.

In turn, `CCC#CCCOc1cc(C=O)ccc1OC` returned a melting point of 86.5 to 87.5 °C.

For the compound `COc1ccc2cccc(N3C(=O)CN(Cc4ccccc4)CC3=O)c2c1`, the melting point is 178 °C.

`CSc1c(NCc2ccncc2)cnn(C(C)(C)C)c1=O`: the melting point fell in the range of 107 to 110 °C.

As to `Cc1cc(C(C)(C)C)c(O[Si](C)(C)Cl)c(C(C)(C)C)c1`, the melting point lay within 119 to 121 °C.

The compound `COC(=O)CCc1sc(Sc2ccc(O)cc2)nc1-c1ccccc1` yielded a melting point of 153 to 155 °C.

For the compound `O=Cc1cc(O)c(O)c([N+](=O)[O-])c1`, the melting point lay within 142 to 143 °C.

`COC(=O)NN=C1CCCCCC1`: the melting point amounted to 75 °C.

Regarding `COC(=O)c1ccccc1NC(=S)c1ccc(OC)nc1`, the melting point was 133 to 140 °C.

Regarding `O=c1[nH]cnc2sccc12`, the melting point fell in the range of 256 to 258 °C.

In turn, `CS(=O)(=O)c1ccc(-c2cc(C(=O)c3ccc(Cl)cc3Cl)sc2N2CCOCC2)cc1` registered a melting point of 170 °C.

As for `Cc1cccc(OCCCN2CCC(OC(c3ccccc3)c3ccccc3)CC2)c1NS(C)(=O)=O`, the melting point came to 132 °C.

The compound `O=C(c1ccccc1)N1CC(O)C(O)C(O)C1CO` (stereo not given) showed a melting point of 159 °C.

In turn, `Cc1cn(C2CC2)c(=O)nc1NS(=O)(=O)c1ccc(N)cc1` yielded a melting point of 134 to 136 °C.

Turning to `CCn1c(=O)ccc2cnc(Nc3ccc(OCCOC)cc3)nc21`, the melting point fell in the range of 169 to 171 °C.

On to `CCCCc1c(Cc2ccc(-c3ccccc3)c(-c3nnn[nH]3)c2)c(COC)nn1CC(F)(F)F`, for which the melting point came to 48 °C.

Turning to `Cc1nc2cc(-c3ccccc3C#N)ccc2[nH]1`, the melting point is 205 to 208 °C.

In the case of `O[C@@H](c1n[nH]cc1-c1ccccc1)[C@H](CCN1CCC(O)(c2ccccc2)CC1)c1ccc(Cl)c(Cl)c1` (racemic), the melting point was 122 to 124 °C.

In turn, `COCc1n[nH]c2c1c(=O)n(-c1ccccc1)c1ncccc21` returned a melting point of 263 to 265 °C.

`COC(=O)[C@H](COCc1ccccc1)NC(=O)Nc1n[nH]c(=S)s1` had a melting point of 84 to 86 °C.

Take `CC(C)(C)OC(=O)C=C(O)c1cccnc1Oc1ccc(F)cc1`: the melting point lay in the range of 87 to 89 °C.

The compound `CSCc1cc(N)ccc1O` came in with a melting point of 166 °C.

`CC(C(=O)O)c1ccc(C(=O)c2ccc(Br)o2)cc1` (stereo not given) showed a melting point of 108 to 110 °C.

With `CCCCCCCCc1cc2c(cc1/C(C)=C/c1ccc(C(=O)OC)cc1)C(C)(C)CCCS2(=O)=O`, the melting point lay within 85 to 86 °C.

The compound `COC1=C(OC)C(=Nc2ccc(Cl)c(Cl)c2)N(C)C1=O` displayed a melting point of 111 to 113 °C.

With `C1=C(c2ccccc2)CCN(CCCCc2ccncc2)C1`, the melting point is 89 to 90 °C.

`Cc1ccc(Cc2c[nH]c(NCCCC3CCCc4cccnc43)nc2=O)cn1` (stereo not given): the melting point was 75 to 80 °C.

In the case of `CCC(CC)N(C)c1cc(C(=O)OC)ccc1N1C(=O)CCC1(CO)CO`, the melting point was in the range of 142 to 143 °C.

`C=Cc1c(-c2ccccc2)coc1C(=O)NNC(=O)c1ccc(O)c(C#N)c1` gave a melting point of 170 to 174 °C.

As to `Cc1cc(CCCc2ccc(CO)c(CO)c2)ccc1O`, the melting point worked out at 92 °C.

In turn, `COC12CC(CO)CN(C)C1CC1CNc3cccc2c31` (stereo not given) had a melting point of 134 to 138 °C.

`O=S1(=O)N=CN(C2CCCCC2)c2cc(Cl)ccc21` came in with a melting point of 189 to 191 °C.

`OC(CNC1CCc2ccccc2C1)COc1ccccc1Cl` (stereo not given) displayed a melting point of 98 to 101 °C.

`O=[N+]([O-])c1cc(-c2nc3ccccc3[nH]2)cc(O)c1O` showed a melting point of more than 300 °C.

In turn, `CCCCN1C(=O)NC(Cc2ccccc2)C1=O` (stereo not given) showed a melting point of 143 °C.

On to `COc1nc(NC(=N)SC)nc(OC)n1`, for which the melting point lay within 94 to 100 °C.

In turn, `NS(=O)(=O)c1ccc(-c2cc(-c3c[nH]nc3-c3ccccn3)ccc2F)cc1` had a melting point of 128 °C.

The compound `C[Si](C)(C)c1sc(C=O)cc1Oc1ccccc1` yielded a melting point of 120 to 122 °C.

`O=C(O)c1cc(Cl)cs1` yielded a melting point of 138 °C.

`CCOC(=O)N1c2ccccc2Sc2cc(O)c3ccccc3c21` showed a melting point of 205 to 206 °C.

`N#Cc1ccc(N2CCN(c3ccncc3)CC2)cc1`: the melting point lay within 155 to 158 °C.

For `CC(CC(=O)c1ccccc1)C(=O)N1CCC[C@H]1C(=O)O` (stereo not given in full), the melting point fell in the range of 218 to 220 °C.

The compound `Nc1cc(OCC2CC=CCC2)cc(N)n1` (stereo not given) showed a melting point of 89 °C.

In turn, `OC(c1ccncc1)(c1ccc(F)c(F)c1)c1ccc(F)c(F)c1` came in with a melting point of 147 to 149 °C.

In turn, `O=C(CCCCCNC(=O)OCc1ccccc1)NCCCCCO` returned a melting point of 92.5 to 94 °C.

The compound `O=C1C(O)OCN1c1cccc(C(F)(F)F)c1` (stereo not given) had a melting point of 75 to 76 °C.

Compound `Cc1c(-c2ccccc2)[nH]c(N2CCCC2=O)c1C#N` had a melting point of 140 to 141 °C.

With `CN1CCC(C(=O)N2CCC(c3[nH]nc4c3C(=O)c3c(NC(=O)NN5CCOCC5)cccc3-4)CC2)CC1`, the melting point lay within 148 to 150 °C.

Compound `CCc1cc(CNc2nc3ccccc3o2)c(=O)[nH]c1C` yielded a melting point of 211 to 213 °C.

Consider `O=c1[nH]c2ccc(CCN3CCN(c4cccc5cccnc45)CC3)cc2o1`, for which the melting point stood at 200 °C.

`O=Cc1ccc2c3ccccc3c3ccccc3c2c1` came in with a melting point of 160 to 162 °C.

The compound `CCOC(=O)c1cn(-c2ccc(OC)cc2)[nH]c1=O` came in with a melting point of 125 to 127 °C.

`CCOC(=O)c1ccc(OCC2CN(c3ccc(S(C)(=O)=O)nn3)CCO2)cc1` (stereo not given) yielded a melting point of 197 °C.

`O=C(NC/C=C\COc1cc(CN2CCCCC2)ccn1)NC1CCCC1` returned a melting point of 121 to 124 °C.

Take `Cn1c(SC(C)(CO)c2ccccc2)cc2ccccc21` (stereo not given): the melting point fell in the range of 118 to 119 °C.

As to `O=Cc1ccc2c(n1)C(=O)C(NC(=O)CCl)=CC2=O`, the melting point lay in the range of 190 to 192 °C.

As to `CC1(C)COC(c2c(F)cccc2C2(C)CCCC2)=N1`, the melting point fell in the range of 116 to 117 °C.

`CC(=O)C1CCC2C3CCC4CC(OC(=O)CI)CCC4(C)C3C(OC(=O)CI)CC12C` (stereo not given): the melting point fell in the range of 112 to 113 °C.

Take `CCOC(=O)c1cc(C#N)c(=O)[nH]c1C`: the melting point lay in the range of 208 to 210 °C.

`Cc1ccc(Sc2c(N)cc(C(=O)O)cc2S)cc1` came in with a melting point of 178 to 182 °C.

Take `Fc1nc(Cl)c2cc[nH]c2n1`: the melting point amounted to 180 °C.

On to `CCCCc1ncc(C=C2C(=O)N(CC(=O)OCC)c3ccccc32)n1Cc1ccc(C(=O)OC)cc1`, for which the melting point is 118 to 119 °C.

Take `Fc1ccc(CC(=S)N2CCCCC2)cc1`: the melting point fell in the range of 65.5 to 67.5 °C.

`O=C(Nc1ccc(C(=O)N2C=C3CC=CN3Cc3ccccc32)cc1)c1ccccc1F` displayed a melting point of 257 to 260 °C.

`CN1C(=S)N(c2ccc(C#N)c(C(F)(F)F)c2)C(=O)C1(CF)CF` came in with a melting point of 122 to 123 °C.

For `CCc1ccc(Nc2ncc(Cc3ccc(OC)nc3)c3ncccc23)cc1Br`, the melting point fell in the range of 142 to 146 °C.

For `N#Cc1cc([N+](=O)[O-])c(N)cc1F`, the melting point lay in the range of 197 to 199 °C.

These data come from a melting point compilation (Tetko et al.; mined from patent text by program, amines drawn as free bases though some values may be those of a salt).
